Where a name gives a salt, the structure may show the parent alone.

Sequence of human Factor XIa (P03951 388-625): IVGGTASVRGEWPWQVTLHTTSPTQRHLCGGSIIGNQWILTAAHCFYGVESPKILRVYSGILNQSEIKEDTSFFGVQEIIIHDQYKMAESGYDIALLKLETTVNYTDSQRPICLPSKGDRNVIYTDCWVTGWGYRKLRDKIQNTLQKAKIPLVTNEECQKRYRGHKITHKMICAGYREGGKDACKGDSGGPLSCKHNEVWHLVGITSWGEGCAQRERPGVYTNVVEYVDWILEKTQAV
Sequence of human Factor XIa (P03951 19-387 partner): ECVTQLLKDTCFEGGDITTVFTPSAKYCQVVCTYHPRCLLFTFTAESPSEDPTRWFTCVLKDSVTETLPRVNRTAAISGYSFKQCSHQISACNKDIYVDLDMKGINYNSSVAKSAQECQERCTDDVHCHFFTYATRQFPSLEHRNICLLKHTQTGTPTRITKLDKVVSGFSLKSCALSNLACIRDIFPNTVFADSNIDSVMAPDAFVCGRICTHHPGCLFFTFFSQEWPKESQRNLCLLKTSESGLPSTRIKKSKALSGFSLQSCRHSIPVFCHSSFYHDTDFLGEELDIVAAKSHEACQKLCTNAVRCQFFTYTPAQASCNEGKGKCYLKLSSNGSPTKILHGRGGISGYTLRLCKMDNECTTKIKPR

The first assay addresses human Factor XIa (Homo sapiens (Human), UniProt P03951). Briefly: Factor XIa Assay. The conditions noted are these: purified human Factor XIa 40 pM, Z-Gly-Pro-Arg-AFC 100 μM, pH 7.4; read-out: FXIa Ki. The assay is classed as biochemical. The gist of the method:
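Purified human FXIa (40 pM final) hydrolysing fluorogenic Z-Gly-Pro-Arg-AFC (100 μM) in 50 mM HEPES pH 7.4, 150 mM NaCl, 5 mM CaCl2, 0.1% PEG 8000, at room temperature or 37° C. Initial velocities measured after enzyme–inhibitor equilibration; Ki from Vo/Vi versus [I], assuming competitive inhibition.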
`COC(=O)Nc1ccc(NC(=O)N[C@@H](Cc2ccccc2)C(=O)N2CCC3(C2)OC(=O)Nc2ccc(Cl)cc23)cc1` (stereo partly drawn) [Example 275, methyl (4-(3-((2S)-1-(6-chloro-2-oxo-1,2-dihydrospiro[benzo[d][1,3]oxazine-4,3′-pyrrolidin]-1′-yl)-1-oxo-3-phenylpropan-2-yl)ureido)phenyl)carbamate]: the Ki was found to be 5000 nM.
Still for that read-out and setting: with `Nc1[nH]nc2c1CN(C(=O)N[C@@H](Cc1ccccc1)C(=O)N1CCC3(C1)OC(=O)Nc1ccc(Cl)cc13)C2` (stereo partly drawn) [Example 276, 3-amino-N-((2S)-1-(6-chloro-2-oxo-1,2-dihydrospiro[benzo[d][1,3]oxazine-4,3′-pyrrolidin]-1′-yl)-1-oxo-3-phenylpropan-2-yl)-4,6-dihydropyrrolo[3,4-c]pyrazole-5(2H)-carboxamide] the figure was 5000 nM.
On the same count and under the same terms, to `O=C(Nc1ccc(C(=O)O)cc1)N[C@@H](Cc1ccccc1)C(=O)N1CCC2(C1)OC(=O)Nc1ccc(Cl)cc12` (stereo partly drawn) [Example 277, 4-(3-((2S)-1-(6-chloro-2-oxo-1,2-dihydrospiro[benzo[d][1,3]oxazine-4,3′-pyrrolidin]-1′-yl)-1-oxo-3-phenylpropan-2-yl)ureido)benzoic acid] belongs 5000 nM.
Take `NC(=O)c1n[nH]c2c1CN(C(=O)N[C@@H](Cc1ccccc1)C(=O)N1CCC3(C1)OC(=O)Nc1ccc(Cl)cc13)C2` (stereo partly drawn) [Example 278, N5-((2S)-1-(6-chloro-2-oxo-1,2-dihydrospiro[benzo[d][1,3]oxazine-4,3′-pyrrolidin]-1′-yl)-1-oxo-3-phenylpropan-2-yl)-4,6-dihydropyrrolo[3,4-c]pyrazole-3,5(1H)-dicarboxamide]: the Ki stood at 5000 nM.
Still for that read-out and setting: to `O=C(NCc1cccc(C(=O)O)c1)N[C@@H](Cc1ccccc1)C(=O)N1CCC2(C1)OC(=O)Nc1ccc(Cl)cc12` (stereo partly drawn) [Example 279, 3-((3-((2S)-1-(6-chloro-2-oxo-1,2-dihydrospiro[benzo[d][1,3]oxazine-4,3′-pyrrolidin]-1′-yl)-1-oxo-3-phenylpropan-2-yl)ureido)methyl)benzoic acid] belongs 5000 nM.

Still in this assay, the particulars now being: read-out: FXIa Ki.
Turning to `COC(=O)Nc1ccc(C(=O)N[C@@H](Cc2ccccc2)C(=O)N2CCC3(C2)OC(=O)Nc2ccc(Cl)cc23)s1` (stereo partly drawn) [Example 196, Methyl (5-(((2S)-1-(6-chloro-2-oxo-1,2-dihydrospiro[benzo[d][1,3]oxazine-4,3′-pyrrolidin]-1′-yl)-1-oxo-3-phenylpropan-2-yl)carbamoyl)thiophen-2-yl)carbamate], the inhibitory constant (Ki) was determined as 63.4 nM.
Still for that read-out and setting: to `COC(=O)Nc1ccc(C(=O)N[C@@H](CC2CC2)C(=O)N2CCC[C@@]3(C2)OC(=O)Nc2ccc(Cl)cc23)c(Cl)c1` [Example 201, methyl (3-chloro-4-(((S)-1-((R)-6-chloro-2-oxo-1,2-dihydrospiro[benzo[d][1,3]oxazine-4,3′-piperidin]-1′-yl)-3-cyclopropyl-1-oxopropan-2-yl)carbamoyl)phenyl)carbamate] belongs 91.3 nM; to `O=C1Nc2ccc(Cl)cc2[C@@]2(CCCN(C(=O)[C@H](CC3CC3)NC(=O)c3ccc(F)c(F)c3)C2)O1` [Example 202, N-((S)-1-((R)-6-chloro-2-oxo-1,2-dihydrospiro[benzo[d][1,3]oxazine-4,3′-piperidin]-1′-yl)-3-cyclopropyl-1-oxopropan-2-yl)-3,4-difluorobenzamide], 925 nM; to `COC(=O)Nc1ccc(C(=O)N[C@@H](CC2CC2)C(=O)N2CCC[C@@]3(C2)OC(=O)Nc2ccc(Cl)cc23)cn1` [Example 204], 244 nM.
Take `Nc1ccc(C(=O)N[C@@H](CC2CC2)C(=O)N2CCC[C@@]3(C2)OC(=O)Nc2ccc(Cl)cc23)cn1` [Example 205]: the Ki was found to be 72.2 nM.
The same measure, in the same setting: to `O=C1Nc2ccc(Cl)cc2[C@@]2(CCCN(C(=O)[C@H](CC3CC3)NC(=O)c3cnc4c(c3)CCN4)C2)O1` [Example 207] belongs 8750 nM.
Same read-out and setting: with `O=C1Nc2ccc(Cl)c(F)c2[C@@]2(CCCN(C(=O)[C@H](CC3CC3)NC(=O)c3ccc4[nH]c(=O)cc(O)c4c3)C2)O1` [Example 210] the figure was 0.22 nM; with `CC(=O)Oc1cc(=O)[nH]c2ccc(C(=O)N[C@@H](Cc3ccccc3)C(=O)N3CCC[C@@]4(C3)OC(=O)Nc3ccc(Cl)c(F)c34)cc12` [Example 211], 39.6 nM.
For `O=C1Nc2ccc(Cl)c(F)c2[C@@]2(CCCN(C(=O)[C@H](Cc3ccccc3)NC(=O)c3ccc(NCC(F)(F)F)nc3)C2)O1` [Example 212], the Ki stood at 133 nM.
On to `N#Cc1n[nH]c2cc(C(=O)N[C@@H](Cc3ccccc3)C(=O)N3CC[C@@]4(C3)OC(=O)Nc3ccc(Cl)cc34)ccc12` [Example 218], for which the inhibition constant (Ki) is 246 nM.
On the same count and under the same terms, with `NC(=O)c1n[nH]c2cc(C(=O)N[C@@H](Cc3ccccc3)C(=O)N3CC[C@@]4(C3)OC(=O)Nc3ccc(Cl)cc34)ccc12` [Example 219] the figure was 2310 nM; with `O=C1Nc2ccc(Cl)cc2[C@@]2(CCCN(C(=O)[C@H](Cc3ccccc3)NC(=O)c3ccc4c(O)cc(=O)[nH]c4c3)C2)O1` [Example 221], 518 nM; with `COC(=O)Nc1ccc(CN[C@@H](Cc2ccccc2)C(=O)N2CC[C@@]3(C2)OC(=O)Nc2ccc(Cl)cc23)cc1` [Example 222, Methyl (4-((((S)-1-((R)-6-chloro-2-oxo-1,2-dihydrospiro[benzo[d][1,3]oxazine-4,3′-pyrrolidin]-1′-yl)-1-oxo-3-phenylpropan-2-yl)amino)methyl)phenyl)carbamate], 8750 nM.
For `COC(=O)Nc1ccc(C(N[C@@H](Cc2ccccc2)C(=O)N2CCC3(C2)OC(=O)Nc2ccc(Cl)cc23)C(F)(F)F)cc1` (stereo partly drawn) [Example 223, Methyl (4-(1-(((S)-1-((R)-6-chloro-2-oxo-1,2-dihydrospiro[benzo[d][1,3]oxazine-4,3′-pyrrolidin]-1′-yl)-1-oxo-3-phenylpropan-2-yl)amino)-2,2,2-trifluoroethyl)phenyl)carbamate], the inhibitory constant (Ki) came to 8750 nM.
Same read-out and setting: with `CC(N[C@@H](Cc1ccccc1)C(=O)N1CC[C@@]2(C1)OC(=O)Nc1ccc(Cl)cc12)c1ccc2c(N)n[nH]c2c1` (stereo partly drawn) [Example 224, (4R)-1′-((1-(3-amino-1H-indazol-6-yl)ethyl)-L-phenylalanyl)-6-chlorospiro[benzo[d][1,3]oxazine-4,3′-pyrrolidin]-2(1H)-one dihydrochloride] the figure was 8750 nM; with `CCOP(=O)(OCC)c1ccc(C(=O)N[C@H](Cc2ccccc2)C(=O)N2CCC[C@@]3(C2)OC(=O)Nc2ccc(Cl)c(F)c23)cc1` [Example 229, diethyl (4-(((R)-1-((R)-6-chloro-5-fluoro-2-oxo-1,2-dihydrospiro[benzo[d][1,3]oxazine-4,3′-piperidin]-1′-yl)-1-oxo-3-phenylpropan-2-yl)carbamoyl)phenyl)phosphonate], 8750 nM.
On to `O=C1Nc2ccc(Cl)c(F)c2[C@@]2(CCCN(C(=O)[C@H](Cc3ccccc3)NC(=O)c3ccc(-c4nc(=O)o[nH]4)cc3)C2)O1` [Example 232, N-((S)-1-((R)-6-chloro-5-fluoro-2-oxo-1,2-dihydrospiro[benzo[d][1,3]oxazine-4,3′-piperidin]-1′-yl)-1-oxo-3-phenylpropan-2-yl)-4-(5-oxo-2,5-dihydro-1,2,4-oxadiazol-3-yl)benzamide], for which the Ki turned out to be 258 nM.
Take `COC(=O)NC12CC(C(=O)N[C@@H](Cc3ccccc3)C(=O)N3CCC[C@@]4(C3)OC(=O)Nc3ccc(Cl)c(F)c34)(C1)C2` [Example 238]: the Ki worked out at 104 nM.
`O=C1Nc2ccc(Cl)cc2[C@@]2(CCCN(C(=O)[C@H](CC3CC3)NC(=O)c3csc(C(=O)O)n3)C2)O1` [Example 239]: the Ki came to 405 nM.
Still for that read-out and setting: to `COC(=O)Nc1ccc(C(=O)N[C@@H](Cc2ccccc2)C(=O)N2CCC[C@@]3(C2)OC(=O)Nc2ccc(Cl)c(F)c23)nn1` [Example 242] belongs 177 nM; to `COC(=O)NC12CCC(C(=O)N[C@@H](Cc3ccccc3)C(=O)N3CCC[C@@]4(C3)OC(=O)Nc3ccc(Cl)c(F)c34)(CC1)CC2` [Example 243], 96 nM.
On the same count and under the same terms, with `O=C1Nc2ccc(Cl)c(F)c2[C@@]2(CCCN(C(=O)[C@H](Cc3ccccc3)NC(=O)c3ccc(=O)[nH]c3)C2)O1` [Example 246] the figure was 77.8 nM; with `O=C1Nc2ccc(Cl)c(F)c2[C@@]2(CCCN(C(=O)[C@H](Cc3ccccc3)NC(=O)c3ccc(-n4cn[nH]c4=O)cc3)C2)O1` [Example 247, N-((S)-1-((R)-6-chloro-5-fluoro-2-oxo-1,2-dihydrospiro[benzo[d][1,3]oxazine-4,3′-piperidin]-1′-yl)-1-oxo-3-phenylpropan-2-yl)-4-(5-oxo-1,5-dihydro-4H-1,2,4-triazol-4-yl)benzamide], 66.8 nM.
The same measure, in the same setting: with `O=C1Nc2ccc(Cl)cc2C2(CCN(C(=O)[C@H](Cc3ccccc3)NC(=O)c3ccc4cc(C(=O)O)ccc4c3)C2)O1` (stereo partly drawn) [Example 259] the figure was 298 nM; with `Nc1ccc2cc(C(=O)N[C@@H](Cc3ccccc3)C(=O)N3CCC4(C3)OC(=O)Nc3ccc(Cl)cc34)ccc2n1` (stereo partly drawn) [Example 261], 4050 nM.
For the compound `O=C1Nc2ccc(Cl)cc2C2(CCN(C(=O)[C@H](Cc3ccccc3)NC(=O)c3ccc4ncc(O)nc4c3)C2)O1` (stereo partly drawn) [Example 262], the Ki was found to be 512 nM.
Consider `O=C1Nc2ccc(Cl)cc2C2(CCN(C(=O)[C@H](Cc3ccccc3)NC(=O)c3ccc4c(c3)S(=O)(=O)N=CN4)C2)O1` (stereo partly drawn) [Example 263], for which the Ki came out at 1970 nM.
On the same count and under the same terms, to `O=C1Nc2ccc(Cl)c(F)c2[C@@]2(CCCN(C(=O)[C@H](Cc3cccc(F)c3)NC(=O)c3ccc(C(=O)NCCP(=O)(O)O)cc3)C2)O1` [Example 273, (2-(4-(((S)-1-((R)-6-Chloro-5-fluoro-2-oxo-1,2-dihydrospiro[benzo[d][1,3]oxazine-4,3′-piperidin]-1′-yl)-3-(3-fluorophenyl)-1-oxopropan-2-yl)carbamoyl)benzamido)ethyl)phosphonic acid] belongs 367 nM.

The record behind these values is US10093683B2, “Factor XIa inhibitors” (Merck Sharp & Dohme Corp., priority 2014, dated 2018).
